Earlier results in patent US20220175755A1, “METHODS OF TREATING TOBACCO SMOKING ADDICTION, AND TREATING NICOTINE AND TOBACCO SMOKING ADDICTION” (Pharma Unlimited B.V., priority 2017, published 2022).
Read-outs that look alike come from different tables or passages of the source.

Legend:
[1] = test system: number of cigarettes smoked by tobacco smokers; conditions: aerosol with an inhaler, dose of 400 μg CBD dissolved in absolute ethanol≈5%
[2] = transdermal patches
[3] = nicotine replacement therapy using chewing gum

C=C(C)[C@@H]1CCC(C)=C[C@H]1c1c(O)cc(CCCCC)cc1O [CBD]
reduction of the number of cigarettes smoked [1]: 40%

CN1CCC[C@H]1c1cccnc1 [nicotine, 3-[(2S)-1-methylpyrrolidine-2-yl]pyridine]
blood concentration after stopping chewing the gum (chewing gum, 90 minutes after stopping chewing): about 7 ng/ml
peak nicotine absorption rate (chewing tobacco): around 145 μg/min
time of peak nicotine absorption rate (chewing tobacco): 5 min
peak blood concentration [3]: less than 9 ng/ml
peak nicotine absorption rate [3]: around 65 μg/min
time for nicotine absorption rate to decline to zero [3]: about 90 minutes
time of peak nicotine absorption rate [3]: 10 min
time to peak blood concentration [3]: about 30 minutes
peak blood concentration (smoking cigarettes): around 15 ng/ml
peak nicotine absorption rate (smoking cigarettes): around 200 μg/min
time of peak nicotine absorption rate (smoking cigarettes): about 5 minutes
time to peak blood concentration (smoking cigarettes): about 10 minutes
time for blood concentration to fall to 70% of the peak value (smoking cigarettes, after finishing smoking): about 20 minutes
time after applying a patch at which blood nicotine levels start to rise [2]: about 30 minutes
